Laboratory results reported in article PMC6002545, “Deciphering the late steps of rifamycin biosynthesis” (Nature Communications, 2018).

Molecular target: T1, Rif16 (Amycolatopsis mediterranei, UniProt A0A0H3CVZ6)
T1 construct: gene AMED_0653; N-terminally His6-tagged Rif16 (rif16 from A. mediterranei S699)
Test: Type I spectral substrate binding titration; co-crystal structure at […] Å

T1 sequence (A0A0H3CVZ6 entry or part of it): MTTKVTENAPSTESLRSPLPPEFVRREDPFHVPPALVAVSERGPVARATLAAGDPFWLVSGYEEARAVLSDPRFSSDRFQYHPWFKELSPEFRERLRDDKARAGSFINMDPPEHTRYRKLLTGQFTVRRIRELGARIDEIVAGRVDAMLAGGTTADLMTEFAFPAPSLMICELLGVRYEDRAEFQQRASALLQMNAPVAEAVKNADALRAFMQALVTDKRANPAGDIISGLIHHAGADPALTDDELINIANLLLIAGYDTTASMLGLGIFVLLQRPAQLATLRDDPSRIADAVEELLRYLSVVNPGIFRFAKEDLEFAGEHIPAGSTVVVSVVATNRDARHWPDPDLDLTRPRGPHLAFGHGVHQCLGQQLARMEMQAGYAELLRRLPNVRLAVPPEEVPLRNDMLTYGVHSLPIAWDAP

Kd: 1300 ± 100 nM
Structure (SMILES): CO[C@H]1/C=C/O[C@@]2(C)Oc3c(C)c(O)c4c(O)c(cc(OC(=O)CO)c4c3C2=O)NC(=O)/C(C)=C/C=C/[C@H](C)[C@H](O)[C@@H](C)[C@@H](O)[C@@H](C)[C@H](OC(C)=O)[C@@H]1C [R-L, rifamycin L]
